Reference: PMC6570762, “Identification of a binding protein for sesamin and characterization of its roles in plant growth” (Scientific Reports, 2019)

Target: T1, Steroleosin B (GST-fused Steroleosin B) (Sesamum indicum, UniProt Q8LKV5)
T1 construct: gene SOP3
T1 sequence (Q8LKV5 1-362): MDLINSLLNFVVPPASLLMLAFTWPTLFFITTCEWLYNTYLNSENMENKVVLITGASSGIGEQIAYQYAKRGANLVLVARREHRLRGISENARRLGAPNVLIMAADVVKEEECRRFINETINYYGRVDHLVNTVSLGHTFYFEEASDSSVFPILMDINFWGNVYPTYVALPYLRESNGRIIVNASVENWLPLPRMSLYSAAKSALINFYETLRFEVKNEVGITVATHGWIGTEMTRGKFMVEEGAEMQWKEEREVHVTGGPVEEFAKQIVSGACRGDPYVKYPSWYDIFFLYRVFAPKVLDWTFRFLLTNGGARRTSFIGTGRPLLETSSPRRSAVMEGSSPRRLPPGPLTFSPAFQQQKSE
Experiment: STD-NMR ([…] MHz)
Type: binding
Details: 60 μM sesamin, 0.5 μM GST-Steroleosin B, stated ligand:protein ratio 60:1; PBS in D2O, 5% DMSO-d6, 298 K; GST alone as control

c1cc2c(cc1[C@H]1OC[C@H]3[C@@H]1CO[C@@H]3c1ccc3c(c1)OCO3)OCO2 [sesamin]
STD-NMR (800 MHz): these results demonstrate the direct interaction between sesamin and Steroleosin B
